Like-named read-outs stand apart in the source and are kept apart here.
Tested on: test plant species
Assay: Post-emergent herbicidal activity test (greenhouse, foliar spray, visual growth reduction)
Type: in vivo
Details: post-emergence, 336 h, 140 g ai/ha
Summary of the method: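 Visual percent injury (0-100) rated 14 d after treatment, relative to nontreated and solvent-blank plants. Test plants at first or second true leaf stage received an overhead track-sprayer application at 187 L/ha. Compounds were formulated in aqueous acetone/DMSO carrier containing crop oil concentrate and X-77 surfactant.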

[1] = ALOMY: blackgrass (Alopecurus myosuroides), 14 days after application, read-out: Visual Growth Reduction (%) 14 Days After Application, ALOMY
[2] = AMARE: redroot pigweed (Amaranthus retroflexus), 14 days after application, read-out: Visual Growth Reduction (%) 14 Days After Application, AMARE
[3] = AVEFA: wild oat (Avena fatua), 14 days after application, read-out: Visual Growth Reduction (%) 14 Days After Application, AVEFA
[4] = CHEAL: lambsquarters (Chenopodium album), 14 days after application, read-out: Visual Growth Reduction (%) 14 Days After Application, CHEAL
[5] = CIRAR: canada thistle (Cirsium arvense), 14 days after application, read-out: Visual Growth Reduction (%) 14 Days After Application, CIRAR
[6] = CYPES: yellow nutsedge (Cyperus esculentus), 14 days after application, read-out: Visual Growth Reduction (%) 14 Days After Application, CYPES
[7] = DIGSA: crabgrass (Digitaria sanguinalis), 14 days after application, read-out: Visual Growth Reduction (%) 14 Days After Application, DIGSA
[8] = ECHCG: barnyardgrass (Echinochloa crus-galli), 14 days after application, read-out: Visual Growth Reduction (%) 14 Days After Application, ECHCG
[9] = IPOHE: ivy-leaf morning glory (Ipomoea hederacea), 14 days after application, read-out: Visual Growth Reduction (%) 14 Days After Application, IPOHE
[10] = KCHSC: kochia (Bassia scoparia), 14 days after application, read-out: Visual Growth Reduction (%) 14 Days After Application, KCHSC
[11] = ORYSA: rice (Oryza sativa), 14 days after application, read-out: Visual Growth Reduction (%) 14 Days After Application, ORYSA
[12] = SETFA: giant foxtail (Setaria faberi), 14 days after application, read-out: Visual Growth Reduction (%) 14 Days After Application, SETFA
[13] = SORVU: grain sorghum (Sorghum vulgare), 14 days after application, read-out: Visual Growth Reduction (%) 14 Days After Application, SORVU
[14] = STEME: common chickweed (Stellaria media), 14 days after application, read-out: Visual Growth Reduction (%) 14 Days After Application, STEME
[15] = TRZAS: wheat, spring (Triticum aestivum), 14 days after application, read-out: Visual Growth Reduction (%) 14 Days After Application, TRZAS
[16] = blackgrass (Alopecurus myosuroides), 14 Days After Application, read-out: Visual Growth Reduction (%) ALOMY
[17] = crabgrass (Digitaria sanguinalis), 14 Days After Application, read-out: Visual Growth Reduction (%) DIGSA
[18] = lambsquarters (Chenopodium album), 14 Days After Application, read-out: Visual Growth Reduction (%) CHEAL
[19] = redroot pigweed (Amaranthus retroflexus), 14 Days After Application, read-out: Visual Growth Reduction (%) AMARE
[20] = wild oat (Avena fatua), 14 Days After Application, read-out: Visual Growth Reduction (%) AVEFA
[21] = yellow nutsedge (Cyperus esculentus), 14 Days After Application, read-out: Visual Growth Reduction (%) CYPES

SMILES | pest or weed control at 140 g/ha [1] | pest or weed control at 140 g/ha [2] | pest or weed control at 140 g/ha [3] | pest or weed control at 140 g/ha [4] | pest or weed control at 140 g/ha [5] | pest or weed control at 140 g/ha [6] | pest or weed control at 140 g/ha [7] | pest or weed control at 140 g/ha [8] | pest or weed control at 140 g/ha [9] | pest or weed control at 140 g/ha [10] | pest or weed control at 140 g/ha [11] | pest or weed control at 140 g/ha [12] | pest or weed control at 140 g/ha [13] | pest or weed control at 140 g/ha [14] | pest or weed control at 140 g/ha [15] | pest or weed control at 140 g/ha [16] | pest or weed control at 140 g/ha [17] | pest or weed control at 140 g/ha [18] | pest or weed control at 140 g/ha [19] | pest or weed control at 140 g/ha [20] | other results
COC(=O)c1nc(-c2ccc(C(F)(F)F)c(C#N)c2Cl)ccc1Cl [F143, methyl 3-chloro-6-(2-chloro-3-cyano-4-(trifluoromethyl)phenyl)picolinate] | 0 to 29% | 45 to 59% | 0 to 29% | 30 to 44% | 0 to 29% | 0 to 29% | 75 to 84% | 0 to 29% | 75 to 84% | 0 to 29% | 0 to 29% | 0 to 29% | 60 to 74% | 0 to 29% | 0 to 29% |  |  |  |  |  | 
COC(=O)c1nc(-c2cccc(F)c2OC)c(F)cc1Cl [F264, Methyl 3-chloro-5-fluoro-6-(3-fluoro-2-methoxyphenyl) picolinate] |  |  |  |  |  |  |  | 0 to 29% | 95 to 100% | 0 to 29% | 0 to 29% | 0 to 29% | 0 to 29% | 0 to 29% | 0 to 29% | 0 to 29% | 0 to 29% | 75 to 84% | 0 to 29% | 0 to 29% | pest or weed control at 140 g/ha (canada thistle (Cirsium arvense), 14 Days After Application, read-out: Visual Growth Reduction (%) CIRAR): 30 to 44%; pest or weed control at 140 g/ha [21]: 0 to 29%
C=Cc1ccc(-c2ccc(Cl)c(C(=O)OC)n2)c(Cl)c1 [F23, methyl 3-chloro-6-(2-chloro-4-vinylphenyl)picolinate] | 0 to 29% | 0 to 29% | 0 to 29% | 0 to 29% | 0 to 29% | 0 to 29% | 0 to 29% | 0 to 29% | 30 to 44% | 0 to 29% | 0 to 29% | 0 to 29% | 0 to 29% | 0 to 29% | 0 to 29% |  |  |  |  |  | 
COc1cc2c(cc1-c1nc(C(=O)O)c(Cl)cc1F)OC(F)(F)O2 [F344, 3-Chloro-6-(2,2-difluoro-6-methoxybenzo[d][1,3]dioxol-5-yl)-5-fluoropicolinic acid] |  |  |  |  |  |  |  | 0 to 29% | 95 to 100% | 45 to 59% | 0 to 29% | 60 to 74% | 75 to 84% | 0 to 29% | 45 to 59% | 0 to 29% | 60 to 74% | 30 to 44% | 0 to 29% | 0 to 29% | pest or weed control at 140 g/ha [21]: 0 to 29%
COC(=O)c1nc(-c2ccc(Oc3ccc(F)cc3)cc2Cl)ccc1Cl [F123, Methyl 3-chloro-6-(2-chloro-4-(4-fluorophe)phenyl) picolinate] | 0 to 29% | 0 to 29% | 0 to 29% | 0 to 29% | 0 to 29% | 0 to 29% | 0 to 29% | 0 to 29% | 30 to 44% | 0 to 29% | 0 to 29% | 0 to 29% | 0 to 29% | 0 to 29% | 0 to 29% |  |  |  |  |  | 

Reference: patent publication US20230017045A1, “PYRIDINE AND PYRIMIDINE CARBOXYLATE HERBICIDES AND METHODS OF USE THEREOF” (Dow AgroSciences LLC, priority 2017, published 2023)
